Test results reported in patent US4654342A, “6-(cyanoguanidinophenyl)pyridazinones as cardiac stimulants” (Smith Kline & French Laboratories Ltd., priority 1984, dated 1987).
Read-outs that look alike come from different tables or passages of the source.

Key:
Type (III) PDE = target: T1, Type (III) PDE (Cavia porcellus, UniProt H0VIU9); experiment: Phosphodiesterase Type (III) inhibition; type: biochemical, guinea pig; conditions: 1 μm cyclic AMP, 10 minutes; 10 minutes pre-incubation; read-out: IC50, inhibition of `low Km` Type (III) PDE activity
T1 construct: phosphodiesterases (PDE) isolated from guinea pig ventricle; from tissue; host or cells: guinea pig ventricle; forms separated by ion-exchange chromatography
T1 sequence (H0VIU9 1-1132): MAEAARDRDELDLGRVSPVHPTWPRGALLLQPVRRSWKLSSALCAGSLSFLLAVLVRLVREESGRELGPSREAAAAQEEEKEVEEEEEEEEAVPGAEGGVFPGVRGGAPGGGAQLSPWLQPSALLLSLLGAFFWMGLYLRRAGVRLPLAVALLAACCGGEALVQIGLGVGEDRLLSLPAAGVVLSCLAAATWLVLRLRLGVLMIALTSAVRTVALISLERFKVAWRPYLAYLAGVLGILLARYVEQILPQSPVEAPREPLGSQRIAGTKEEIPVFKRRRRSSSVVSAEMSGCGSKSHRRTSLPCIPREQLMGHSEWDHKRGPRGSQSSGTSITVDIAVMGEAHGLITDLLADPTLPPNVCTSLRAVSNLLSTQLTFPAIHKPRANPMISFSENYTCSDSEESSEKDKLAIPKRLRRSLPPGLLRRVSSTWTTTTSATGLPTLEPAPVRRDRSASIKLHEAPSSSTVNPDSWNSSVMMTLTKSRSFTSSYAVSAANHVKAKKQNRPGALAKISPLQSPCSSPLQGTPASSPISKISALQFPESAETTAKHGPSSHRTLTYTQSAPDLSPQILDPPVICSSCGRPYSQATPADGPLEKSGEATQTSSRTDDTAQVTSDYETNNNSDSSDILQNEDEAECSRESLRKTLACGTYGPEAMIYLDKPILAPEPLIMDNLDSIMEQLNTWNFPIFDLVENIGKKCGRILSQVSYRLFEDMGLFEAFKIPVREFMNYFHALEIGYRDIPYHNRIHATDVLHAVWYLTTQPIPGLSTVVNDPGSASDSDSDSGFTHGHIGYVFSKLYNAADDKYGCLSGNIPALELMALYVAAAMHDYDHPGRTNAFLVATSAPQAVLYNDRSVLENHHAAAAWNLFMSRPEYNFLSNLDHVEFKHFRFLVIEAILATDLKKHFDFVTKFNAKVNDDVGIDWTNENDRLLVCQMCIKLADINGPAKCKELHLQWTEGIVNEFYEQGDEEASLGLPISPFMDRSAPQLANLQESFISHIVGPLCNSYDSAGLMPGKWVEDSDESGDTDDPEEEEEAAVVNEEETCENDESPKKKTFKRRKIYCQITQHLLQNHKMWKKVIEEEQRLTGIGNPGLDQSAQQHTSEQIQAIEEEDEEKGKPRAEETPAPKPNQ
Protocol: The products of Example 13 were tested for selectivity as inhibitors of the phosphodiesterases (PDE) isolated from guinea pig ventricle. Three forms of PDE were isolated by ion-exchange chromatography using the method of Thompson et al, Adv. Nucleotide Research, vol 10, p 69, Brooker et al (Eds), Raven Press, 1979.
In separate experiments with the (-)-isomer, the (+)-isomer and racemic material, following a 10 minutes pre-incubation of the test compound with Type (III) PDE, PDE activity was measured at 1 μm cyclic AMP for 10 minutes (using a modification of the method of Davis and Daly, Journal of Cyclic Nucleotide Research, vol 5, p 65, Raven Press, 1979). IC50 values were obtained for inhibition of `low Km` Type (III) PDE activity: […]

right ventricular strips = experiment: Cardiac stimulant activity in vitro, guinea pig ventricular strips (force of contraction)
Protocol: The compounds of formula (I) and their pharmaceutically acceptable salts are tested for cardiac stimulant activity following a procedure based on that of S. C. Verma and J. H. McNeill (J.Pharm & Exp. Therapeutics, 200, 352-362 (1977)). Guinea pigs (500-700 g) of either sex are sacrificed and the hearts are quickly removed and transferred to a dissecting dish containing oxygenated bathing fluid. While in the bathing medium, the right ventricle is cut into two strips. The strips are each suspended in a 50 ml bath containing Krebs Henseleit solution at 37° C., and the bath is bubbled with 95% oxygen and 5% carbon dioxide. The ventricular strips are electrically stimulated at a frequency of 1.0 Hz, at double the threshold voltage. A resting tension of 1.0 g is applied to the strips and the tension is kept constant by readjustment during an equilibration period of 60 minutes. The bathing fluid is frequently changed during this period. When a steady base line is obtained, a compound under test is added to the bathing fluid and a cumulative concentration response curve is plotted. The compounds for use in the present invention which were tested gave a 50% increase in the force of contraction of the ventricular strips at concentrations in the bathing fluid of less than 10^-4 molar, thus showing that they have activity as positive inotropic agents.

[1] = test system: left ventricular dp/dt max; experiment: Cardiac stimulant activity in vivo, anaesthetised cats (left ventricular dp/dt max); set-up: species or system cat; key to Relative Duration: ***: long; **: medium; *: short; conditions: for positive inotropism, relative to the (+)-isomer: anaesthetised cat screen
From the text: The dose to increase left ventricular dp/dt max by 50% is given as the ED50.

[2] = test system: hindquarters perfusion pressure; experiment: Vasodilator activity, anaesthetised cat hindquarters autoperfused at constant blood flow; type: in vivo; conditions: anaesthetised cat screen
Protocol: The compounds of Examples 3, 4, 5 and 8 were tested in autoperfused anaesthetised cat hindquarters (autoperfused at constant blood flow). The doses to decrease hindquarters perfusion pressure (vasodilatation) by 15% are given below: […]

hindquarters blood flow = experiment: Vasodilator activity, anaesthetised rat hindquarters autoperfused at constant blood pressure; type: in vivo; conditions: for dose to increase hindquarters blood flow by 50%: anaesthetised rat hindquarters screen
From the text: The dose to increase hindquarters blood flow by 50% was 4.6 μmol/Kg.

[3] = test system: left ventricular dp/dt max; experiment: Cardiac stimulant activity in vivo, conscious dogs (left ventricular dp/dt max); set-up: species or system dog; conditions: for minimal effective dose: Canis lupus familiaris
Protocol: Oral administration caused positive inotropic responses at doses of 0.25 mg/kg and below. […] Therefore this compound is particularly beneficial with regard to `force-rate` selectivity.

platelets = experiment: Platelet aggregation inhibition in vitro (platelet rich plasma); type: cell-based, normal healthy volunteers (human)
Protocol: Plasma was prepared as follows. Blood from 6 normal healthy volunteers was mixed with 3.8% w/v trisodium citrate (9 parts blood: 1 part citrate). The samples were centrifuged at 150 g for 10 minutes and the supernatant platelet rich plasma (PRP) was removed. The platelet concentration in the PRP was adjusted to 300±50×10^9 /1 platelets with autologous platelet poor plasma.
25 μl aliquots of a 40 μg/ml solution of the compound of Example 1 were incubated with 225 μl aliquots of PRP in a Payton Aggregometer for 3 minutes. Control solutions, one matched to the test solution with respect to solution pH and tonicity, and another of 0.9% w/v NaCl were also studied. After 3 minutes 25 μl aliquots of adenosine diphosphate solution at a concentration of 20 μm were added to each solution. The aggregation response was recorded until complete with a maximum of 3 minutes. The procedure was repeated using as different aggregation agents: 100 μg collagen; 100 μm adrenaline or 5 mg/ml arachidonic acid instead of adenosine diphosphate.
The aggregation responses induced by the different aggregation agents were measured for the platelets from each donor. The results were assessed by visual examination of the aggregation tracing produced by the Payton aggregometer and semi-quantitatively assessed by measurement of the light transmission 3 minutes after adding the inducing agent.
Serial dilutions of this compound were prepared and tested for inhibition of adenosine diphosphate induced aggregation.

[4] = test system: 2-pyridylethylamine-induced bronchoconstriction; experiment: Bronchodilatation in vivo, 2-pyridylethylamine-induced bronchoconstriction; set-up: species or system guinea-pigs (Dunkin Hartley); conditions: i.v. bolus one minute before challenge
Protocol: Male guinea-pigs of the Dunkin Hartley strain (530 g±6 g) were anaesthetised with Sagatal (pentobarbital sodium) (90 mg/kg i.p.). Airway resistance was measured using a modification of the classical Konzett-Rossler technique (Versuchsanordnung zu Untersuchungen an der Bronchialmuskulatur. Naunyn-Schmiedebergs Arch. Exp. Path. Pharmak., 30: pp 121-145, (1940)). A dose of 2-pyridylethylamine which gave approximately 100% increase in airway resistance was selected for i.v. administration. Bolus doses of the compound of Example 1 were administered (i.v.) one minute before the 2-pyridylethylamine challenge.

[5] = in vitro, read-out: EC50 value, inotropic activity on guinea pig ventricular strip
[6] = i.v., anaesthetised rat hindquarters

In the case of `CC1CC(=O)NN=C1c1ccc(N)cc1` (single isomer, unassigned; (-)) [(-)-isomer, (-)-6-(4-aminophenyl)-5-methyl-4,5-dihydro-3(2H)-pyridazinone], the IC50 (Type (III) PDE) is reported as 9.6 ± 3.4 µM, the EC50 (right ventricular strips; [5]) is reported as 1.4 µM and the “positive inotropism, relative to the (+)-isomer” value [1] is reported as “more active than the (+)-isomer”. For the same compound, the “vasodilatation, relative to the (+)-isomer” value [2] was “more active than the (+)-isomer”.

`CNC(=NC#N)Nc1ccc(C2=NNC(=O)CC2C)cc1` (single isomer, unassigned; (-)) [Example 14, (-)-6-[4-(N^3 -Methyl-N^2-cyanoguanidino)phenyl]-5-methyl-4,5-dihydro-3(2H)-pyridazinone] was tested, and the “dose to increase hindquarters blood flow by 50%” value (hindquarters blood flow) was 2.4 µM/kg, the IC50 (Type (III) PDE) was 1.7 ± 1 µM and the EC50 (right ventricular strips; [5]) was 0.71 µM. For the same compound, the “positive inotropism, relative to the (+)-isomer” value [1] was “more active than the corresponding (+)-isomer of Example 15” and the “vasodilatation, relative to the (+)-isomer” value [2] was “more active than the corresponding (+)-isomer of Example 15”.

`CNC(=NC#N)Nc1ccc(C2=NNC(=O)CC2C)cc1` (stereo not drawn) [Example 1, 6-[4-(N^3 -Methyl-N^2-cyanoguanidino)phenyl]-5-methyl-4,5-dihydro-3(2H)-pyridazinone] was tested, and the ED (50% increase in hindquarters blood flow) (hindquarters blood flow; Rattus norvegicus, iv, anaesthetised rat, read-out: dose to increase hindquarters blood flow by 50%) was 4.6 µmol/kg, the “dose range of dose-dependent vasodilatation” value (hindquarters blood flow; [6]) was 1 to 10 µmol/kg and the duration of activity (hindquarters blood flow; [6]) was “significant duration of activity”. The “changes in blood pressure or heart rate” value [3] was “without changes in blood pressure or heart rate”, the minimal effective dose ([3]; intravenous, read-out: dose increasing left ventricular dp/dt max) was < 0.1 mg/kg and the minimal effective dose ([3]; oral, read-out: dose causing positive inotropic responses) was ≤ 0.25 mg/kg. For the same compound, the “persistence of positive inotropic responses” value ([3]; persisted for up to) was 9 to 12 h, the IC100 (platelets; Homo sapiens, Platelet, adenosine diphosphate induced aggregation, serial dilutions, read-out: concentration completely inhibiting second wave aggregation) was ≥ 0.5 µg/mL and the “inhibition of platelet aggregation induced by adenosine diphosphate” value (platelets; final concentrations of 5 μg/ml, adenosine diphosphate) was “inhibited platelet aggregation”. For the same compound, the “inhibition of platelet aggregation induced by adrenaline” value (platelets; final concentrations of 5 μg/ml, adrenaline) was “inhibited platelet aggregation”, the “inhibition of platelet aggregation induced by arachidonic acid” value (platelets; final concentrations of 5 μg/ml, arachidonic acid) was “inhibited platelet aggregation” and the “inhibition of platelet aggregation induced by collagen” value (platelets; final concentrations of 5 μg/ml, collagen) was “inhibited platelet aggregation”. It also gave an EC50 (right ventricular strips; Cavia porcellus, 50% increase in force of contraction, guinea pig ventricular strips, read-out: EC50 × 10^-6 M) of 1.4 µM, an ED50 ([4]; Cavia porcellus, iv, read-out: ED50, dose which reduced the 2-pyridylethylamine bronchoconstriction by 50%) of 0.39 µmol/kg and a minimal effective dose ([4]; Cavia porcellus, read-out: threshold dose) of 0.0316 µmol/kg. For the same compound, the “effect on 2-pyridylethylamine-induced bronchoconstriction” value [4] was “reduced the 2-pyridylethylamine-induced bronchoconstriction”, the ED50 ([1]; Felis catus, intravenous, dose to increase left ventricular dp/dt max by 50%, anaesthetised cats) was 0.2 µmol/kg and the “Relative Duration” value ([1]; estimated in anaesthetised cats following i.v. administration) was “***”.

For `CNC(=NC#N)Nc1ccc(C2=NNC(=O)CC2C)cc1` (single isomer, unassigned; (+)) [Example 15, (+)-6-[4-(N^3 -Methyl-N^2-cyanoguanidino)phenyl]-5-methyl-4,5-dihydro-3(2H)-pyridazinone], the “dose to increase hindquarters blood flow by 50%” value (hindquarters blood flow) was 8.6 µM/kg, the IC50 (Type (III) PDE) was 11.3 ± 5.4 µM and the EC50 (right ventricular strips; [5]) was 4.3 µM.

In the case of `CC1CC(=O)NN=C1c1ccc(N)cc1` (single isomer, unassigned; (+)) [(+)-isomer, (+)-6-(4-aminophenyl)-5-methyl-4,5-dihydro-3(2H)-pyridazinone], the IC50 (Type (III) PDE) is reported as 207 ± 88 µM and the EC50 (right ventricular strips; [5]) is reported as 11.3 µM.

`CC1CC(=O)NN=C1c1ccc(N)cc1` (racemic) [racemate, 6-(4-aminophenyl)-5-methyl-4,5-dihydro-3(2H)-pyridazinone] gave an IC50 (Type (III) PDE) of 37 ± 12.9 µM.
